Test system: anti-IgM antibody BCR stimulation-induced intracellular calcium influx in Ramos cells
Assay: Inhibition test on the change of Ramos intracellular calcium ion
Format: cell-based
Settings: Fluo-8NW fluorescence, anti-IgM 2.0 μg/mL, FIG. 1
Description: The intracellular BTK inhibition by the compounds of the present invention was verified by measuring the effects of the compounds of the present invention on “anti-IgM antibody BCR stimulation-induced intracellular calcium influx”. One day before measurement, the Ramos cells were cultured as being suspended again at a cell density of 1.0×10^6 cells/mL in a fresh growth medium (growth medium as used in Test Example 2), and the cells were recovered next day by centrifugation and washed with RPMI-1640 medium supplemented with 5% penicillin-streptomycin (Nacalai Tesque, Inc.) (Medium 1). […] The Ramos intracellular calcium ion concentration was measured as a fluorescent intensity of the calcium indicator Fluo-8NW using a microplate reader (SynergyH1) (Ex/Em=490/525 nm) After measuring the baseline for 15 seconds, 50 μL of the anti-IgM antibody (Invitrogen, #H15100) diluted with Medium 2 to 10.4 μg/mL was added to each well described above (final concentration of 2.0 μg/mL) to effect BCR stimulation, and then the measurement was continued further for 150 seconds.

Cn1cc(Nc2nc(N)nc(-c3ccnc(-n4ccc5cc(C6CC6)cc(F)c5c4=O)c3CO)n2)cc1C#N [Example 3, 4-({4-Amino-6-[2-(6-cyclopropyl-8-fluoro-1-oxoisoquinolin-2(1H)-yl)-3-(hydroxymethyl)pyridin-4-yl]-1,3,5-triazin-2-yl}amino)-1-methyl-1H-pyrrole-2-carbonitrile]
inhibition of anti-IgM antibody BCR stimulation-induced intracellular calcium ion variation: in a concentration-dependent manner from a low concentration
